Assay results from ChEMBL document CHEMBL1909046, “DrugMatrix in vitro pharmacology data”.

Key:
[1] = DRUGMATRIX: Atrial Natriuretic Factor (ANF) radioligand binding (ligand: [125I] ANF (rat)); assay type: cell membranes, Cavia porcellus, Dunkin-Hartley, Adrenal gland, Membrane; settings: Not Active = under 50% inhibition at 10 µM
[2] = biological target: Beta-2 adrenergic receptor (Homo sapiens, UniProt P07550); assay: DRUGMATRIX: Adrenergic beta2 radioligand binding (ligand: [3H] CGP-12177); assay type: cell membranes, CHO, Membrane; settings: cho; Not Active = under 50% inhibition at 10 µM
Chain of Beta-2 adrenergic receptor (P07550 whole entry): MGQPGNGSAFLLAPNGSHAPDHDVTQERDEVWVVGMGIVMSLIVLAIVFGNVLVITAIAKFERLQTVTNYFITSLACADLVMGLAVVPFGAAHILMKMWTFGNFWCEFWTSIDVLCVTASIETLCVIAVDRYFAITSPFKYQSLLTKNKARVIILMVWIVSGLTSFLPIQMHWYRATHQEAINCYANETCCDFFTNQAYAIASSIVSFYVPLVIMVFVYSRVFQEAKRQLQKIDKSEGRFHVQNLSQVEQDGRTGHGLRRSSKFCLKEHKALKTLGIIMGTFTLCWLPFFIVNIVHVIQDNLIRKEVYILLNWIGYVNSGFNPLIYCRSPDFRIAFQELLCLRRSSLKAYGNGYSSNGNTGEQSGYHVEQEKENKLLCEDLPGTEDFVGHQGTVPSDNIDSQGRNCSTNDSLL

[3] = biological target: Melanocortin receptor 5 (Homo sapiens, UniProt P33032); assay type: cell membranes, HEK293, Membrane; settings: for Ki: read-out: Ki; as to all read-outs here: in other assays of this panel Not Active means under 50% inhibition at 10 µM
Chain of Melanocortin receptor 5 (P33032 whole entry): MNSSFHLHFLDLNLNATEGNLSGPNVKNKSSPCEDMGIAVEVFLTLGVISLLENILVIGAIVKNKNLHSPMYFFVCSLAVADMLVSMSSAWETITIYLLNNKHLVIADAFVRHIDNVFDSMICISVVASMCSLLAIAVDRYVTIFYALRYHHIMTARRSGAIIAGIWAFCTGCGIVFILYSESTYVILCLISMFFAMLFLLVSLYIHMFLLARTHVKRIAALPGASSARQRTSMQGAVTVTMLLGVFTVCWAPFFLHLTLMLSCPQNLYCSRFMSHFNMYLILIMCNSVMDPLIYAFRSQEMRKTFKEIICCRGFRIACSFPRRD

[4] = biological target: T1, Neutrophil elastase (Homo sapiens, UniProt P08246); assay type: tissue-based;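 also: inhibition of neutrophil elastase enzyme activity, measured with a p-nitroanilide-linked peptide substrate; in other assays of this panel Not Active means under 50% inhibition at 10 µM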
T1 sequence (P08246 whole entry): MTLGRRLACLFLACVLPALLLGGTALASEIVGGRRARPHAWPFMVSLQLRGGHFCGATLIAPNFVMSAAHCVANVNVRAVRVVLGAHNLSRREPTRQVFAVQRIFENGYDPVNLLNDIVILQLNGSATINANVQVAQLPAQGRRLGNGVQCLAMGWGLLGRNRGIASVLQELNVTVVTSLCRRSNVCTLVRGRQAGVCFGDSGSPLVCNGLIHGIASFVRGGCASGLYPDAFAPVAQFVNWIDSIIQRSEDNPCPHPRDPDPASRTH

[5] = biological target: Cannabinoid receptor 1 (Homo sapiens, UniProt P21554); assay type: cell membranes, Chem-1, Membrane; also: in other assays of this panel Not Active means under 50% inhibition at 10 µM
Chain of Cannabinoid receptor 1 (P21554 whole entry): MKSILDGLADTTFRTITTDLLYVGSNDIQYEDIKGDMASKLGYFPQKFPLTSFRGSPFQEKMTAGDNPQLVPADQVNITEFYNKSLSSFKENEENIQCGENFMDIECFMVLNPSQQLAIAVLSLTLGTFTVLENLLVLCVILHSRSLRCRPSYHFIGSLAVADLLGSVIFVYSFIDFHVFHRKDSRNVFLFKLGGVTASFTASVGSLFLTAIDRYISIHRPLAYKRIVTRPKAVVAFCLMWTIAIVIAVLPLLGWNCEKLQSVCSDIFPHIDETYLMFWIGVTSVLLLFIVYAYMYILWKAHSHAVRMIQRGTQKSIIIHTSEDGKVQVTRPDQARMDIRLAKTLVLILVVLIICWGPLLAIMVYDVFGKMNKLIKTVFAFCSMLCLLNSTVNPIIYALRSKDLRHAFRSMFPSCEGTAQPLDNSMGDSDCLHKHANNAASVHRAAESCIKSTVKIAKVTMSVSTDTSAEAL

[6] = DRUGMATRIX: Nicotinic Acetylcholine radioligand binding (ligand: [125I] Epibatidine); assay type: cell membranes, Membrane; settings: imr-32; Not Active = under 50% inhibition at 10 µM
[7] = DRUGMATRIX: Platelet-Derived Growth Factor (PDGF) radioligand binding (ligand: [125I] PDGF); assay type: cell-based; settings: nih3t3; Not Active = under 50% inhibition at 10 µM
[8] = biological target: Cytochrome P450 2E1 (Homo sapiens, UniProt P05181); settings: bti-tn-5b1-4; also: in other assays of this panel Not Active means under 50% inhibition at 10 µM
Chain of Cytochrome P450 2E1 (P05181 whole entry): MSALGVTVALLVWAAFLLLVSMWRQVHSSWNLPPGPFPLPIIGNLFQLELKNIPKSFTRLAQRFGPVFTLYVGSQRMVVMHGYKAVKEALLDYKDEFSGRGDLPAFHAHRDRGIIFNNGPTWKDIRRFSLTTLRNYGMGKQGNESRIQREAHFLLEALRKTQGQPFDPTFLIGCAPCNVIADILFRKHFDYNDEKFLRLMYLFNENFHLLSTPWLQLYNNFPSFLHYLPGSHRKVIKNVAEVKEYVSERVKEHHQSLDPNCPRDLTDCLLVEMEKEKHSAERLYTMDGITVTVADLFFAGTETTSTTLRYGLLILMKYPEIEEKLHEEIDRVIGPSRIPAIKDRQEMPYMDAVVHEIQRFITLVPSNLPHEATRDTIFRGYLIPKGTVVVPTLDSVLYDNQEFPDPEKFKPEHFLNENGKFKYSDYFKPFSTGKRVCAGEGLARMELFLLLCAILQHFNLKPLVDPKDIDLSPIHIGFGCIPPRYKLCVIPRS

| SMILES | IC50 [1] | Ki [1] | IC50 [2] | IC50 ([3]; hek293) | IC50 [4] | IC50 ([5]; chem-1) | IC50 [6] | Ki [6] | IC50 [7] | Ki [7] | IC50 [8] | Ki [8] | IC50 ([3]; read-out: IC50) | Ki [3] | IC50 ([5]; read-out: IC50) | Ki ([5]; read-out: Ki) | Ki [2] | Ki ([5]; chem-1) |
| --- | --- | --- | --- | --- | --- | --- | --- | --- | --- | --- | --- | --- | --- | --- | --- | --- | --- | --- |
| Cc1c(C)c2c(c(C)c1O)CCC(C)(CN1CCN(c3cc(N4CCCC4)nc(N4CCCC4)n3)CC1)O2 (centres undefined) | Not Active | Not Active | Not Active | Not Active | Not Active | Not Active | Not Active | Not Active | Not Active | Not Active | – | – | – | – | – | – | – | – |
| COc1ccc(CCN(C)CCCC(C#N)(c2ccc(OC)c(OC)c2)C(C)C)cc1OC (centres undefined) | Not Active | Not Active | Not Active | Not Active | Not Active | Not Active | Not Active | Not Active | Not Active | Not Active | Not Active | Not Active | – | – | – | – | – | – |
| CC(C)Cc1ccc([C@@H](C)C(=O)O)cc1 [(R)-IBUPROPHEN] | Not Active | Not Active | Not Active | Not Active | Not Active | Not Active | Not Active | Not Active | Not Active | Not Active | Not Active | Not Active | – | – | – | – | – | – |
| CN(C)CCOC(c1ccccc1)c1ccccc1 [DIPHENHYDRAMINE] | – | – | Not Active | Not Active | Not Active | Not Active | – | – | – | – | – | – | – | – | – | – | – | – |
| Clc1ccc(COC(Cn2ccnc2)c2ccc(Cl)cc2Cl)cc1 (centres undefined) [ECONAZOLE] | – | – | Not Active | – | Not Active | – | – | – | – | – | Not Active | Not Active | 39.5 µM | 37.1 µM | – | – | – | – |
| CCN(CC)CCOc1ccc(/C(=C(/Cl)c2ccccc2)c2ccccc2)cc1 [ENCLOMIPHENE] | – | – | Not Active | Not Active | Not Active | Not Active | – | – | – | – | Not Active | Not Active | – | – | – | – | – | – |
| Fc1ccc(C(c2ccc(F)cc2)N2CCN(C/C=C/c3ccccc3)CC2)cc1 [FLUNARIZINE] | – | – | Not Active | Not Active | Not Active | – | – | – | – | – | Not Active | Not Active | – | – | 3.03 µM | 2390 nM | – | – |
| CNCCC(Oc1ccc(C(F)(F)F)cc1)c1ccccc1 (centres undefined) [FLUOXETINE] | – | – | Not Active | Not Active | Not Active | Not Active | – | – | – | – | Not Active | Not Active | – | – | – | – | – | – |
| Cc1ccc(NC(=O)c2ccc(CN3CCN(C)CC3)cc2)cc1Nc1nccc(-c2cccnc2)n1 [IMATINIB] | – | – | Not Active | Not Active | Not Active | Not Active | – | – | – | – | Not Active | Not Active | – | – | – | – | – | – |
| CC(C)Oc1ccc2c(=O)c(-c3ccccc3)coc2c1 [IPRIFLAVONE] | Not Active | Not Active | – | Not Active | Not Active | Not Active | Not Active | Not Active | Not Active | Not Active | Not Active | Not Active | – | – | – | – | Not Active | – |
| CC(C)NCC(O)c1ccc(O)c(O)c1 (centres undefined) [ISOPROTERENOL] | Not Active | Not Active | – | Not Active | Not Active | Not Active | Not Active | Not Active | Not Active | Not Active | Not Active | Not Active | – | – | – | – | – | – |
| CNC1(c2ccccc2Cl)CCCCC1=O (centres undefined) [KETAMINE] | Not Active | Not Active | Not Active | Not Active | Not Active | Not Active | Not Active | Not Active | Not Active | Not Active | Not Active | Not Active | – | – | – | – | – | – |
| N#Cc1ccc(C(c2ccc(C#N)cc2)n2cncn2)cc1 [LETROZOLE] | Not Active | Not Active | Not Active | Not Active | Not Active | Not Active | Not Active | Not Active | Not Active | Not Active | Not Active | Not Active | – | – | – | – | – | – |
| CCN1CCC[C@H]1CNC(=O)c1cc(S(N)(=O)=O)ccc1OC [LEVOSULPIRIDE] | Not Active | Not Active | Not Active | Not Active | Not Active | Not Active | Not Active | Not Active | Not Active | Not Active | Not Active | Not Active | – | – | – | – | – | – |
| CCN(CC)CC(=O)Nc1c(C)cccc1C [LIDOCAINE] | Not Active | Not Active | Not Active | Not Active | Not Active | Not Active | Not Active | Not Active | Not Active | Not Active | Not Active | Not Active | – | – | – | – | – | – |
| O=C1Nc2ccc(Cl)cc2C(c2ccccc2Cl)=NC1O (centres undefined) [LORAZEPAM] | Not Active | Not Active | Not Active | Not Active | Not Active | Not Active | Not Active | Not Active | Not Active | Not Active | Not Active | Not Active | – | – | – | – | – | – |
| CO[C@@H]1[C@@H](OC)[C@H](C)[C@@](O)(CC(=O)O)O[C@H]1[C@H](C)[C@H]1O[C@@]2(CC[C@@](C)([C@H]3CC[C@@](C)([C@@H]4O[C@@H]([C@H]5O[C@](C)(O)[C@H](C)C[C@@H]5C)C[C@@H]4O[C@@H]4C[C@H](OC)[C@@H](OC)[C@H](C)O4)O3)O2)C[C@H](O)[C@H]1C [MADURAMICIN ACID] | Not Active | Not Active | Not Active | Not Active | Not Active | Not Active | Not Active | Not Active | Not Active | Not Active | Not Active | Not Active | – | – | – | – | – | – |
| COc1c2occc2cc2ccc(=O)oc12 [METHOXSALEN] | Not Active | Not Active | Not Active | Not Active | Not Active | Not Active | Not Active | Not Active | Not Active | Not Active | Not Active | Not Active | – | – | – | – | – | – |
| C[C@H]1C[C@@H]2[C@H]([C@@H](O)C[C@@]3(C)[C@H]2CC[C@]3(O)C(=O)CO)[C@@]2(C)C=CC(=O)C=C12 [METHYLPREDNISOLONE] | Not Active | Not Active | Not Active | Not Active | Not Active | Not Active | Not Active | Not Active | Not Active | Not Active | Not Active | Not Active | – | – | – | – | – | – |
| Cc1cccc(C)c1OCC(C)N (centres undefined) [MEXILETINE] | Not Active | Not Active | Not Active | Not Active | Not Active | – | Not Active | Not Active | Not Active | Not Active | Not Active | Not Active | – | – | – | – | – | Not Active |
| Nc1cc(N2CCCCC2)nc(N)[n+]1[O-] [MINOXIDIL] | Not Active | Not Active | Not Active | Not Active | Not Active | Not Active | Not Active | Not Active | Not Active | Not Active | Not Active | Not Active | – | – | – | – | – | – |
| CO[C@H]1/C=C/O[C@@]2(C)Oc3c(C)c(O)c4c(O)c(c(/C=N/N5CCN(C6CCCC6)CC5)c(O)c4c3C2=O)NC(=O)/C(C)=C\C=C\[C@H](C)[C@H](O)[C@@H](C)[C@@H](O)[C@@H](C)[C@H](OC(C)=O)[C@@H]1C [RIFAPENTINE] | Not Active | Not Active | Not Active | Not Active | Not Active | Not Active | Not Active | Not Active | Not Active | Not Active | Not Active | Not Active | – | – | – | – | – | – |
| CCCCOc1cc(CC2CNC(=O)N2)ccc1OC (centres undefined) [RO-201724] | Not Active | Not Active | Not Active | Not Active | Not Active | Not Active | Not Active | Not Active | Not Active | Not Active | Not Active | Not Active | – | – | – | – | – | – |
| CN[C@H]1CC[C@@H](c2ccc(Cl)c(Cl)c2)c2ccccc21 [SERTRALINE] | – | – | Not Active | – | Not Active | Not Active | – | – | – | – | Not Active | Not Active | 4.6 µM | 4.31 µM | – | – | – | – |
| CC(C)NCC(O)c1ccc(NS(C)(=O)=O)cc1 (centres undefined) [SOTALOL] | Not Active | Not Active | – | Not Active | Not Active | Not Active | Not Active | Not Active | Not Active | Not Active | Not Active | Not Active | – | – | – | – | – | – |
